Measured values: ChEMBL document CHEMBL6153147 (J Med Chem, 2025)

Key:
[1] = target: Serine/threonine-protein kinase PLK3 (Homo sapiens, UniProt Q9H4B4); assay: Inhibition of human PLK3 using ATF2 as substrate incubated for 40 mins in presence of [gamma-33P]ATP/Mg acetate by scintillation counting analysis
[2] = Selectivity ratio of IC50 for inhibition of human PLK3 using ATF2 as substrate to IC50 for inhibition of human PLK1 using ATF2 as substrate
[3] = target: Serine/threonine-protein kinase PLK1 (Homo sapiens, UniProt P53350); assay: Inhibition of human PLK1 at 10 uM by kinome selectivity profiling analysis relative to control
[4] = target: Serine/threonine-protein kinase PLK2 (Homo sapiens, UniProt Q9NYY3); assay: Inhibition of human PLK2 assessed as residual activity at 10 uM by kinome selectivity profiling analysis relative to control
[5] = target: Serine/threonine-protein kinase MRCK alpha (Homo sapiens) (UniProt Q5VT25); assay: Inhibition of human MRCK-alpha assessed as residual activity at 10 uM by kinome selectivity profiling analysis relative to control
[6] = target: Glycogen synthase kinase-3 beta (Homo sapiens) (UniProt P49841); assay: Inhibition of human GSK-3beta assessed as residual activity at 10 uM by kinome selectivity profiling analysis relative to control
[7] = target: Aurora kinase A (Homo sapiens) (UniProt O14965); assay: Inhibition of human Aurora-A assessed as residual activity at 10 uM by kinome selectivity profiling analysis relative to control
[8] = target: Cyclin-dependent kinase 6 (Homo sapiens) (UniProt Q00534); assay: Inhibition of human CDK6 assessed as residual activity at 10 uM by kinome selectivity profiling analysis relative to control
[9] = target: Dual specificity protein kinase CLK2 (Homo sapiens) (UniProt P49760); assay: Inhibition of human CLK2 assessed as residual activity at 10 uM by kinome selectivity profiling analysis relative to control
[10] = Stability of compound in human hepatocytes; type: ADME, cell-based, Hepatocyte
Cytochrome P450 1A2 = Cytochrome P450 1A2 (Homo sapiens, UniProt P05177); assay: Inhibition of CYP1A2 in human liver microsomes using phenacetin as substrate preincubated with compound followed by substrate addition measured after 10 mins in presence of NADPH by LC-MS/MS analysis; type: ADME, Microsome
Cytochrome P450 3A4 [11] = target: T1, Cytochrome P450 3A4 (Homo sapiens, UniProt P08684); assay: Inhibition of CYP3A4 in human liver microsomes using midazolam as substrate preincubated with compound followed by substrate addition measured after 5 mins in presence of NADPH by LC-MS/MS analysis; type: ADME, Microsome
Cytochrome P450 3A4 [12] = target: T1, Cytochrome P450 3A4; assay: Inhibition of CYP3A4 in human liver microsomes using testosterone as substrate preincubated with compound followed by substrate addition measured after 10 mins in presence of NADPH by LC-MS/MS analysis; type: ADME, Microsome
Cytochrome P450 2D6 = Cytochrome P450 2D6 (Homo sapiens, UniProt P10635); assay: Inhibition of CYP2D6 in human liver microsomes using dextromethorphan as substrate preincubated with compound followed by substrate addition measured after 10 mins in presence of NADPH by LC-MS/MS analysis; type: ADME, Microsome
Cytochrome P450 2C8 = Cytochrome P450 2C8 (Homo sapiens, UniProt P10632); assay: Inhibition of CYP2C8 in human liver microsomes using paclitaxel as substrate preincubated with compound followed by substrate addition measured after 10 mins in presence of NADPH by LC-MS/MS analysis; type: ADME, Microsome
[13] = Solubility of compound in 0.01 M PBS at pH 7.4 assessed as fold increase equilibrated for 12 hrs by UV spectrophotometry relative to BI 2536; type: physicochemical; conditions: buffer, pH 7.4, 12 h
[14] = AUC (0 to infinity) in C57BL/6 mouse at 1 mg/kg, iv measured for 0.5 to 12 htr by LC-MS/MS analysis; type: ADME, organism-based; conditions: in vivo, time 0.5-12 hrs
[15] = Volume of distribution at steady state in C57BL/6 mouse at 1 mg/kg, iv measured for 0.5 to 12 htr by LC-MS/MS analysis; type: ADME, organism-based; conditions: in vivo, time 0.5-12 hrs, read-out: Vdss
[16] = AUC (0 to t) in C57BL/6 mouse at 10 mg/kg, po measured for 0.5 to […] htr by LC-MS/MS analysis; type: ADME, organism-based; conditions: in vivo, time 0.5-12 hrs
[17] = MRT (0 to t) in C57BL/6 mouse at 10 mg/kg, po measured for 0.5 to 12 htr by LC-MS/MS analysis; type: ADME, organism-based; conditions: in vivo, time 0.5-12 hrs
[18] = Metabolic stability in mouse liver microsomes assessed as half life preincubated for 5 mins followed by NADPH addition by LC-MS/MS analysis; type: ADME, Microsome
[19] = Metabolic stability in mouse liver microsomes assessed as intrinsic clearance preincubated for 5 mins followed by NADPH addition by LC-MS/MS analysis; type: ADME, Microsome; conditions: read-out: CLH
[20] = Metabolic stability in human liver microsomes assessed as intrinsic clearance in microsome measured per mg protein preincubated for 5 mins followed by NADPH addition by LC-MS/MS analysis; type: ADME; conditions: read-out: CLH
[21] = Metabolic stability in mouse liver microsomes assessed as intrinsic clearance in microsome measured per mg protein preincubated for 5 mins followed by NADPH addition by LC-MS/MS analysis; type: ADME; conditions: read-out: CLH
[22] = Metabolic stability in dog liver microsomes assessed as intrinsic clearance in microsome measured per mg protein preincubated for 5 mins followed by NADPH addition by LC-MS/MS analysis; type: ADME, Canis lupus familiaris; conditions: read-out: CLH
[23] = Cytotoxicity against HEK293T cells assessed as cell viability at 30 uM by CCK8 assay relative to control; type: toxicity, cell-based, HEK-293T; conditions: human, read-out: Activity
HEK-293T = assay: Effect on mitochondrial membrane potential in HEK293T cells at 10 uM incubated for 24 hrs by MitoTracker Red probe based analysis; type: toxicity, cell-based; conditions: human
[24] = Effect on F-actin cytoskeleton in HEK293T cells at 10 uM incubated for 24 hrs by immunofluorescence based analysis; type: toxicity, cell-based; conditions: human, hek-293t
[25] = Acute toxicity in mouse assessed as effect on behaviour at 500 mg/kg, IG qd treated for 7 days; type: organism-based; conditions: in vivo, po, 168 h, time 7 day
[26] = Acute toxicity in mouse assessed as damage in liver at 500 mg/kg, IG qd treated for 7 days by H and E staining based analysis; type: organism-based; conditions: in vivo, po, 168 h, time 7 day
[27] = Acute toxicity in mouse assessed as damage in spleen at 500 mg/kg, IG qd treated for 7 days by H and E staining based analysis; type: organism-based; conditions: in vivo, po, 168 h, time 7 day
[28] = Acute toxicity in mouse assessed as damage in kidney at 500 mg/kg, IG qd treated for 7 days by H and E staining based analysis; type: organism-based; conditions: in vivo, po, 168 h, time 7 day
[29] = Acute hematopoietic toxicity in mouse assessed as effect on platelets at 500 mg/kg, IG qd treated for 7 days; type: organism-based; conditions: in vivo, po, 168 h, time 7 day
PC-9 = assay: cells; conditions: Homo sapiens
SW-620 = assay: cells; conditions: Homo sapiens
K562 = assay: cells; conditions: Homo sapiens
CCRF-CEM = assay: cells; conditions: Homo sapiens
KG-1 = assay: cells; conditions: Homo sapiens

T1 sequence (P08684 whole entry): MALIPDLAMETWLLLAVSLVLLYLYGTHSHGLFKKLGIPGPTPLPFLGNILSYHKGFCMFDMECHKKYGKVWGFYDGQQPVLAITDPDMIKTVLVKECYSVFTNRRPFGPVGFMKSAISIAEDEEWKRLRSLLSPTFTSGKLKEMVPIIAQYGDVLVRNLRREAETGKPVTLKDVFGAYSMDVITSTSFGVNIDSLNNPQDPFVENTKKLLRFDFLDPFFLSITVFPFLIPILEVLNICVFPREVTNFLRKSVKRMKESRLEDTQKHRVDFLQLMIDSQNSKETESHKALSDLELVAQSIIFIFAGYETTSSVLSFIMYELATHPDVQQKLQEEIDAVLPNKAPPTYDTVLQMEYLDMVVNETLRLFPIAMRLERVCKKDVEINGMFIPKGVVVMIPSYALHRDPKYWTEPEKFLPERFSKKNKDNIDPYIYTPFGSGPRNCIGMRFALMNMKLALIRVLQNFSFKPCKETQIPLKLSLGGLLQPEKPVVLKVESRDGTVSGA
Serine/threonine-protein kinase MRCK alpha (Homo sapiens), sequence (Q5VT25 whole entry): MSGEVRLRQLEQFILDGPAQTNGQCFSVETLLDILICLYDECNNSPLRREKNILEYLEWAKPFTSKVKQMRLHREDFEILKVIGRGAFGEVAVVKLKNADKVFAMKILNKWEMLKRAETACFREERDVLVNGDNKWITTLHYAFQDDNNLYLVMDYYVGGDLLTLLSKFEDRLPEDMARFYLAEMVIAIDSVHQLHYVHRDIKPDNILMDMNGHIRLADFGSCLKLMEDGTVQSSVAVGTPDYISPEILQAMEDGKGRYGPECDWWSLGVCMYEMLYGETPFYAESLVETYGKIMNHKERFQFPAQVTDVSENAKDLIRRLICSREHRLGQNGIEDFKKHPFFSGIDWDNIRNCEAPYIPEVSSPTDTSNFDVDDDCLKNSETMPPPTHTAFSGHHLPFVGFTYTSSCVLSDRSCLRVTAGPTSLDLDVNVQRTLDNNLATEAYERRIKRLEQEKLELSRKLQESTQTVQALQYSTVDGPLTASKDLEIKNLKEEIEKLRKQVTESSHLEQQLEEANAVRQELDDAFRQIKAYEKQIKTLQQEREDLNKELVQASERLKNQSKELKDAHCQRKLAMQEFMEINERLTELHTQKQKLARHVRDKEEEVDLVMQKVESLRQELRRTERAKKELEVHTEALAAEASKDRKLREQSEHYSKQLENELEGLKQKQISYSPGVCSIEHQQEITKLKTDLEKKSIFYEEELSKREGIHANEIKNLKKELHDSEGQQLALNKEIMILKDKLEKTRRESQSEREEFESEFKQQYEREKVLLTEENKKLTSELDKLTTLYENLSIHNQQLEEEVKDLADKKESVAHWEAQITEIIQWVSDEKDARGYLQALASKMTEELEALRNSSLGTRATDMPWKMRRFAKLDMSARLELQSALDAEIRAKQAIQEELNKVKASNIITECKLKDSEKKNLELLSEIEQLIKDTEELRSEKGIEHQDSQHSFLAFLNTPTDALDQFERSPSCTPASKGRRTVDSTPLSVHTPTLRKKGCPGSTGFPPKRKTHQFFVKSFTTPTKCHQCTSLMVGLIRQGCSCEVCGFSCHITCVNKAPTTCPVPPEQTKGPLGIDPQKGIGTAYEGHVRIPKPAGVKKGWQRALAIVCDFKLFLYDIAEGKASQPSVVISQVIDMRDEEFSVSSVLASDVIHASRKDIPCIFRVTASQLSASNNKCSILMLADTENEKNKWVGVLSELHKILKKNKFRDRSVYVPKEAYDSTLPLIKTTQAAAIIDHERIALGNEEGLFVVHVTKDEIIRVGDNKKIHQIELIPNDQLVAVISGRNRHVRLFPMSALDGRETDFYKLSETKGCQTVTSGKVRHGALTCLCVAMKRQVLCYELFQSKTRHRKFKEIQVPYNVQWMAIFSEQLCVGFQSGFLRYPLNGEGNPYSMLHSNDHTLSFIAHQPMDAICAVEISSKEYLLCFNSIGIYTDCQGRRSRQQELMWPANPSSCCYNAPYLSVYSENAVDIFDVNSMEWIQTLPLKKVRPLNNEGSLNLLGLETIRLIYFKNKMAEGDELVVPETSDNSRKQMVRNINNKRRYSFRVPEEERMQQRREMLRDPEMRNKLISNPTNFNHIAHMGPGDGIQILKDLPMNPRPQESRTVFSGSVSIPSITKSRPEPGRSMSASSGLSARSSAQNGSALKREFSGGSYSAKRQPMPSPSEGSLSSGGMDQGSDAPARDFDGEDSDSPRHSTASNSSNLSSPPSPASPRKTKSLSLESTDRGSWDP
Cytochrome P450 2D6, sequence (P10635 whole entry): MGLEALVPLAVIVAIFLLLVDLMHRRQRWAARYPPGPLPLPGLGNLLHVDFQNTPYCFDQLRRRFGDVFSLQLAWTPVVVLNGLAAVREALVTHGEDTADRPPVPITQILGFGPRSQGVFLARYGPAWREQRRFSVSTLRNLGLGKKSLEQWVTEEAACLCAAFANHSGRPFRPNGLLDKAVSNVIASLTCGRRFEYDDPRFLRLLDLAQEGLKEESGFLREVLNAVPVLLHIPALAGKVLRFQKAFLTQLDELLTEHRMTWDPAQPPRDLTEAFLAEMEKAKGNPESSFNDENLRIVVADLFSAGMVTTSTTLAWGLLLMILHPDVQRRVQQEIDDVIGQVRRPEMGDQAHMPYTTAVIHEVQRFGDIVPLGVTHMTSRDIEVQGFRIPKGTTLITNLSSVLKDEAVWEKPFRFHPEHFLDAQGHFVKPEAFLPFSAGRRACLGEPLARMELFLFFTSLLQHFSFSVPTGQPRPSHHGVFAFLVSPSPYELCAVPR
Cytochrome P450 1A2, sequence (P05177 whole entry): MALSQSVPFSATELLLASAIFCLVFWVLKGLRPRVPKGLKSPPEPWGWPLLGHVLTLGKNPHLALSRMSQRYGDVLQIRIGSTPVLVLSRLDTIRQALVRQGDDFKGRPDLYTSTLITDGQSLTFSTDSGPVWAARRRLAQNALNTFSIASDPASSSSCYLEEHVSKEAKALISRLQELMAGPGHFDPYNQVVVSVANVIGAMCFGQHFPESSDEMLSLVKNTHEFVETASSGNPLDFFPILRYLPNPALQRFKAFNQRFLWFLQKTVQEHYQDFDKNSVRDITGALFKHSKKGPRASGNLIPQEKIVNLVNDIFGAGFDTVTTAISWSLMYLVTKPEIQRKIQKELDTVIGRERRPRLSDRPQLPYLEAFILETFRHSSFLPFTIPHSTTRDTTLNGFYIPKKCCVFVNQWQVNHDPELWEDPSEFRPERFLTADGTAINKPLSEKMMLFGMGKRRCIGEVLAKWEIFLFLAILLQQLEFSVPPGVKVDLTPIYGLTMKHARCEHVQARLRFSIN
Dual specificity protein kinase CLK2 (Homo sapiens), sequence (P49760 whole entry, looked up): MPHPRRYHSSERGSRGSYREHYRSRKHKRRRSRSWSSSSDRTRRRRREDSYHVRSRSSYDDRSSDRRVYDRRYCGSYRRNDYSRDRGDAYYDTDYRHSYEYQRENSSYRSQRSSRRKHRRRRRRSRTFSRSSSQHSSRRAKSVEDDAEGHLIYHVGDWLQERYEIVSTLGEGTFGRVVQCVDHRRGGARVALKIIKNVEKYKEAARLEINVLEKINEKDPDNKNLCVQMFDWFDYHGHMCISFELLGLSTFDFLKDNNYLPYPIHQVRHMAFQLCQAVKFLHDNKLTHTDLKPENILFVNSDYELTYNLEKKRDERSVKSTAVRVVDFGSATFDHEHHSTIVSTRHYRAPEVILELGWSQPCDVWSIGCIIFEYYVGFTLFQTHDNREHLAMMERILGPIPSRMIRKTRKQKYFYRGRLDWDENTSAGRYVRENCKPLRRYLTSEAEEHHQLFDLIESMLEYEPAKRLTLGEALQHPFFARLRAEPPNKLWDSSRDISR
Serine/threonine-protein kinase PLK3, sequence (Q9H4B4 whole entry): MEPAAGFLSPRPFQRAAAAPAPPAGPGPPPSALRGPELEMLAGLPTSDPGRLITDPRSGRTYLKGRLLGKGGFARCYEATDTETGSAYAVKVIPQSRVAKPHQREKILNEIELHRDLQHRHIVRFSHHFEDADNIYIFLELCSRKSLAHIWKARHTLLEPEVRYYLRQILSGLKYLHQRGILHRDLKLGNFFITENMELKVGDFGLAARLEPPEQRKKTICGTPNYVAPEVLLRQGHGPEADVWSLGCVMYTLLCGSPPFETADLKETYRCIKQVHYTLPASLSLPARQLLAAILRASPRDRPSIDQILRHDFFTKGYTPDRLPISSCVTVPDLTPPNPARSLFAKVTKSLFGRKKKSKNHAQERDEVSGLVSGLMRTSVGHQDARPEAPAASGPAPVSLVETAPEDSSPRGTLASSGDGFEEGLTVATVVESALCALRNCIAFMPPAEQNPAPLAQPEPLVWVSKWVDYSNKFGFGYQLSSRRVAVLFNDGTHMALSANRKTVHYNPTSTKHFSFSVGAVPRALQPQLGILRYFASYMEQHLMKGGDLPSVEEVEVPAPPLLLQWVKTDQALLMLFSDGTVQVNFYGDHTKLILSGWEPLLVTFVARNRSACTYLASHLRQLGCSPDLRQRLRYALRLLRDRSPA
Serine/threonine-protein kinase PLK1, sequence (P53350 whole entry): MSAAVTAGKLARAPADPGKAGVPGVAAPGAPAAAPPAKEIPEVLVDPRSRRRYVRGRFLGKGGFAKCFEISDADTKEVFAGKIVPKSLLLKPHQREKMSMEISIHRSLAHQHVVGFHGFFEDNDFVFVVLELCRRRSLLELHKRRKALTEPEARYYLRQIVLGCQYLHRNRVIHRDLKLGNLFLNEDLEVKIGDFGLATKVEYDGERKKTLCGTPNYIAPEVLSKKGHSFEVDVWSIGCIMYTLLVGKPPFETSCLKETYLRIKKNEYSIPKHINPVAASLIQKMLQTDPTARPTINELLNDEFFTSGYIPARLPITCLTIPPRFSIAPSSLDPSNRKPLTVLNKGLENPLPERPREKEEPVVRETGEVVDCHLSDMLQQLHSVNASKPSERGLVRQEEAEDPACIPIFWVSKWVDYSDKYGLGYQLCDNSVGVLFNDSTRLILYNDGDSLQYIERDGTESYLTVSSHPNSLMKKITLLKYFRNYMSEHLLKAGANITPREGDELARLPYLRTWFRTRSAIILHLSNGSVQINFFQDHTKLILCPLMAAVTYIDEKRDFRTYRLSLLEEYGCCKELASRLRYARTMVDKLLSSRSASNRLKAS

In the case of `CC[C@@H]1C(=O)N(C)c2cnc(Nc3cc(N4CCN(C)CC4)cc(Cl)c3OCCCO)nc2N1C1CCCC1`, the IC50 [1] is reported as 3.95 µM, the ratio [2] is reported as 197 and the inhibition [3] is reported as 100%. It also gave an Activity [4] of 48%, an Activity [5] of 129% and an Activity [6] of 112%. The Activity [7] was 110%, the Activity [8] was 103% and the Activity [9] was 70%. The Stability [10] was “Stable”, the IC50 (Cytochrome P450 1A2) was > 10 µM and the IC50 (Cytochrome P450 3A4 [11]) was > 10 µM. The IC50 (Cytochrome P450 3A4 [12]) was > 10 µM, the IC50 (Cytochrome P450 2D6) was > 10 µM and the IC50 (Cytochrome P450 2C8) was > 10 µM. The “fold change (FC)” value [13] was > 2, the AUC(0-inf) [14] was 183 ng·h/mL and the Vd [15] was 3.6 L/kg. The AUC(0-t) [16] was 820 ng·h/mL, the MRT last [17] was 2 h and the half-life [18] was 0.277 h. The CLint scaled [19] was 829 mL/min/kg, the microsomal CLint [20] was 68.3 µL/min/mg and the microsomal CLint [21] was 210 µL/min/mg. For the same molecule, the microsomal CLint [22] was 190 µL/min/mg, the viability at 30 µM [23] was 68% and the Activity (HEK-293T) was “Non-toxic”. For the same molecule, the Activity [24] was “Non-toxic”, the Activity [25] was “Non-toxic” and the Activity [26] was “Non-toxic”. The Activity [27] was “Non-toxic”, the Activity [28] was “Non-toxic” and the Activity [29] was “Non-toxic”. For the same molecule, the IC50 (PC-9) was 0.775 µM, the IC50 (SW-620) was 0.0082 µM and the IC50 (K562) was 80 pM. For the same molecule, the IC50 (CCRF-CEM) was 0.041 µM and the IC50 (KG-1) was > 10 µM.
